Measurements: patent US20230416330A1, “Optimized GIP Peptide Analogues” (Antag Therapeutics ApS, priority 2019, published 2023)
Where two headings read alike, the source gives them in different places. Starred links: 1 amine or outer side, 2 acyl side, 3 side chain; linkers in the order of their positions; H or OH if unused. Non-standard residues stand in square brackets, D forms with d. Residues, ends and D or L forms follow the SMILES beside them. Groups on a side chain read outwards from the residue. *: point of attachment. C18 diacid = O=C(O)CCCCCCCCCCCCCCCCC(=O)*; C16 diacid = O=C(O)CCCCCCCCCCCCCCC(=O)*; γGlu = O=C(O)[C@H](CCC(=O)[*:2])N[*:1]; Glutaryl = O=C(CCCC(=O)[*:2])[*:1]; Nle = CCCC[C@H](N)C(=O)O; AEEA = NCCOCCOCC(=O)O; Aib = CC(C)(N)C(=O)O

Tests used:
human GIP receptor = molecular target: T1, human GIP receptor (Homo sapiens, UniProt P48546); assay: cAMP assay Alternative 1 (CisBio assay), GIPR antagonism; type: cell-based; conditions: for cAMP antagonism % inhib: % inhibition of Emax
T1 construct: host or cells: HEK-293 cells, transient transfection (Lipofectamine 2000), cDNA in pCMV-Script vector
T1 sequence (P48546 22-466): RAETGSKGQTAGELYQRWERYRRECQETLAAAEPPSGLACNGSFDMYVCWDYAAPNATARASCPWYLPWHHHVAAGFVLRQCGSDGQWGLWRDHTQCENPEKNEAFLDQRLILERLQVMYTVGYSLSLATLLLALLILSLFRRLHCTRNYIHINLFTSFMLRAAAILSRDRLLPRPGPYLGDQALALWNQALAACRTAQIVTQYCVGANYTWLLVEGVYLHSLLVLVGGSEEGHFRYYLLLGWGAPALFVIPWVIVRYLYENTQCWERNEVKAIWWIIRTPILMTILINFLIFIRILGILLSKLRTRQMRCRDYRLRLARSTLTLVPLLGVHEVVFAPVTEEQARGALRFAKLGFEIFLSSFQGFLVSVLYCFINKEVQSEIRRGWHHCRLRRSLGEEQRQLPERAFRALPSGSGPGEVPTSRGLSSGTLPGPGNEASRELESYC
Experimental: HEK293 cells were cultured in 10% CO2 and 37° C. in Dulbecco's modified Eagle's medium supplemented with 10% fetal bovine serum, 2 mM glutamine, 180 units/ml penicillin, and 45 µg/ml streptomycin. Transient transfection with hGIPR for the CisBio assay from Table 2C was performed by using Lipofectamine 2000.
The in vitro functional activity of compounds towards human GIP receptor can also be determined in HEK-293 cells transiently expressing the receptor. On the day of the assay, cells were resuspended in HBSS buffer (Gibco, 14025-50) supplemented with […] (Gibco, 15630-106), 0.1% Pluronic F-68 (Gibco, 24040-032) and 0.1% casein (Sigma, C4765), and plated in 384-well plates at a density of 5000 cells/well. The GIP peptide analogues of the present disclosure were diluted in HBSS buffer supplemented with 20 mM HEPES, 0.1% pluronic, 0.1% casein and 500 uM IBMX. […] The resulting decrease in intracellular cAMP was quantitatively determined using the CisBio cAMP Dynamic 2 HTRF Assay Kit. The assay is based on a competition between native cAMP produced by cells and cAMP labeled with the dye d2 for binding to a cryptate labeled antibody. The specific signal (i.e. energy transfer signal) is inversely proportional to the concentration of cAMP in the sample.
The cAMP-d2 conjugate and the antibody anti-cAMP-Cryptate, both diluted in lysis buffer provided in the kit, were added to the cells according to the manufacturer's protocol. The resulting competitive assay was incubated for 60 minutes at room temperature, and the signal was detected by using a PerkinElmer Envision® instrument with excitation at 320 nm and emission at 665 nm and 620 nm. The HTRF ratio (emission at 665 nm/620 nm*10,000) is inversely proportional to the amount of cAMP present and is converted to nM cAMP per well using a cAMP standard curve. The dose-response curves were fitted using the non-linear regression analysis (four-logistic parameter equation) in GraphPad Prism, whereby pIC50 values were estimated. To test for agonistic properties at the GIP receptor, compounds were diluted and added to cells as described above and incubated for 30 min at 37° C. The resulting increase in intracellular cAMP was determined using the CisBio cAMP Dynamic 2 HTRF Assay Kit as described above.
The dose-response curves were fitted using the non-linear regression analysis (four-logistic parameter equation) in GraphPad Prism, whereby pIC50 values were estimated.

[1] = Physical stability: fibril formation in Thioflavin T (ThT) assay with agitation; type: physicochemical; conditions: 25° C., agitation
Outline: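 Peptides at 1, 5, 7.5 or 15 mg/ml in 50 mM sodium phosphate pH 7.4 or in water adjusted to pH 7.4 with NaOH, filtered 0.22 μm, with ThT added. Wells held a 3 mm silica bead under 300 rpm orbital agitation at 25° C. Emission at 486 nm tracked continuously; lag time = 10% of transition above baseline.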

[2] = Solubility by visual inspection of peptide solutions; type: physicochemical
Outline: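 Peptides dissolved at 1, 5, 7.5 or 15 mg/ml in 50 mM sodium phosphate pH 7.4 or water adjusted to pH 7.4 with NaOH, with gentle mixing. Immediate solubility judged visually as a clear, colorless solution.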

[3] = Table 2B, HEK-293 cells transiently expressing hGIPR, agonist GIP1-42 at EC50, read-out: cAMP antagonism

CC[C@H](C)[C@H](NC(=O)[C@H](CCCCN)NC(=O)[C@H](CCC(=O)O)NC(=O)[C@H](CC(C)C)NC(=O)C(C)(C)NC(=O)[C@@H](NC(=O)[C@H](CO)NC(=O)[C@H](Cc1ccc(O)cc1)NC(=O)[C@H](CCC(=O)O)NC(=O)[C@H](CO)NC(=O)[C@@H](NC(=O)[C@H](Cc1ccccc1)NC(=O)[C@@H](NC(=O)CNC(=O)[C@@H](N)CCC(=O)O)[C@@H](C)O)[C@@H](C)CC)[C@@H](C)CC)C(=O)N[C@@H](CCCCNC(=O)COCCOCCNC(=O)COCCOCCNC(=O)CC[C@H](NC(=O)CCCCCCCCCCCCCCCCC(=O)O)C(=O)O)C(=O)N[C@@H](CCC(N)=O)C(=O)N[C@@H](CCC(N)=O)C(=O)N[C@@H](CCC(=O)O)C(=O)N[C@@H](Cc1ccccc1)C(=O)N[C@H](C(=O)N[C@@H](CCC(=O)O)C(=O)N[C@@H](Cc1c[nH]c2ccccc12)C(=O)N[C@@H](CC(C)C)C(=O)N[C@@H](CC(C)C)C(=O)N[C@@H](C)C(=O)N[C@@H](CCC(N)=O)C(=O)N[C@@H](CCCCN)C(=O)N1CCC[C@H]1C(=O)N[C@@H](CO)C(=O)N[C@@H](CO)C(=O)NCC(=O)N[C@@H](C)C(=O)N1CCC[C@H]1C(=O)N1CCC[C@H]1C(=O)N1CCC[C@H]1C(=O)N[C@@H](CO)C(=O)O)C(C)C [AT695] (H-EGTFISEYSI[Aib]LEKIK([AEEA-AEEA-γGlu-C18 diacid])QQEFVEWLLAQKPSSGAPPPS-OH; N-terminus assumed)
cAMP antagonism % inhib (human GIP receptor; Table 2B): 98% | IC50 (human GIP receptor; [3]): 0.794 nM | Avr lag time (h) ([1]; 1 mg/ml, TFA, Phosphate (7.4)): fnd (Fnd = fibrils not detected within experiment time (96 hours) with agitation.) | Avr lag time (h) ([1]; 5 mg/ml, Na, MilliQ (8)): fnd (Fnd = fibrils not detected within experiment time (96 hours) with agitation.) | Visual appearance ([2]; 1 mg/ml, TFA, Phosphate (7.4)): Clear | Visual appearance ([2]; 5 mg/ml, Na, MilliQ (8)): Clear

CC[C@H](C)[C@H](NC(=O)[C@H](CO)NC(=O)[C@H](Cc1ccc(O)cc1)NC(=O)[C@H](CC(=O)O)NC(=O)[C@H](CO)NC(=O)[C@@H](NC(=O)[C@H](Cc1ccccc1)NC(=O)[C@@H](NC(=O)CNC(=O)CCCC(=O)O)[C@@H](C)O)[C@@H](C)CC)C(=O)N[C@@H](C)C(=O)N[C@@H](CCSC)C(=O)N[C@@H](CC(=O)O)C(=O)N[C@@H](CCCCN)C(=O)N[C@H](C(=O)N[C@@H](CCCCNC(=O)CCCCCCCCCCCCCCC(=O)O)C(=O)N[C@@H](CCC(N)=O)C(=O)N[C@@H](CCC(N)=O)C(=O)N[C@@H](CC(=O)O)C(=O)N[C@@H](Cc1ccccc1)C(=O)N[C@H](C(=O)N[C@@H](CC(N)=O)C(=O)N[C@@H](Cc1c[nH]c2ccccc12)C(=O)N[C@@H](CC(C)C)C(=O)N[C@@H](CC(C)C)C(=O)N[C@@H](C)C(=O)N[C@@H](CCC(N)=O)C(=O)N[C@@H](CCCCN)C(=O)N1CCC[C@H]1C(=O)N[C@@H](CO)C(=O)N[C@@H](CO)C(=O)NCC(=O)N[C@@H](C)C(=O)N1CCC[C@H]1C(=O)N1CCC[C@H]1C(=O)N1CCC[C@H]1C(=O)N[C@@H](CO)C(=O)O)C(C)C)[C@@H](C)CC [AT677] (Glutaryl-GTFISDYSIAMDKIK(C16 diacid)QQDFVNWLLAQKPSSGAPPPS-OH)
IC50 (human GIP receptor): 0.447 nM | cAMP antagonism % inhib (human GIP receptor; Table 2B): 93% | Avr lag time ([1]; 1 mg/ml, Na, MilliQ (8)): <24 h | Avr lag time ([1]; 1 mg/ml, TFA, Phosphate (7.4)): 16.5 ± 2.3 h | Visual appearance ([2]; 1 mg/ml, TFA, Phosphate (7.4)): Clear

CCCC[C@H](NC(=O)C(C)(C)NC(=O)[C@@H](NC(=O)[C@H](CO)NC(=O)[C@H](Cc1ccc(O)cc1)NC(=O)[C@H](CCC(=O)O)NC(=O)[C@H](CO)NC(=O)[C@@H](NC(=O)[C@H](Cc1ccccc1)NC(=O)[C@@H](NC(=O)CNC(=O)[C@@H](N)CCC(=O)O)[C@@H](C)O)[C@@H](C)CC)[C@@H](C)CC)C(=O)N[C@@H](CCC(=O)O)C(=O)N[C@@H](CCCCN)C(=O)N[C@H](C(=O)N[C@@H](CCCCNC(=O)CCCCCCCCCCCCCCC(=O)O)C(=O)N[C@@H](CCC(N)=O)C(=O)N[C@@H](CCC(N)=O)C(=O)N[C@@H](CCC(=O)O)C(=O)N[C@@H](Cc1ccccc1)C(=O)N[C@H](C(=O)N[C@@H](CCC(=O)O)C(=O)N[C@@H](Cc1c[nH]c2ccccc12)C(=O)N[C@@H](CC(C)C)C(=O)N[C@@H](CC(C)C)C(=O)N[C@@H](C)C(=O)N[C@@H](CCC(N)=O)C(=O)N[C@@H](CCCCN)C(=O)N1CCC[C@H]1C(=O)N[C@@H](CO)C(=O)N[C@@H](CO)C(=O)NCC(=O)N[C@@H](C)C(=O)N1CCC[C@H]1C(=O)N1CCC[C@H]1C(=O)N1CCC[C@H]1C(=O)N[C@@H](CO)C(=O)O)C(C)C)[C@@H](C)CC [AT674] (H-EGTFISEYSI[Aib][Nle]EKIK(C16 diacid)QQEFVEWLLAQKPSSGAPPPS-OH; N-terminus assumed)
cAMP antagonism % inhib (human GIP receptor; Table 2B): 93% | IC50 (human GIP receptor; [3]): 0.447 nM | Avr lag time (h) ([1]; 1 mg/ml, TFA, Phosphate (7.4)): fnd (Fnd = fibrils not detected within experiment time (96 hours) with agitation.) | Visual appearance ([2]; 1 mg/ml, TFA, Phosphate (7.4)): Clear

CC[C@H](C)[C@H](NC(=O)[C@H](CO)NC(=O)[C@H](Cc1ccc(O)cc1)NC(=O)[C@H](CC(=O)O)NC(=O)[C@H](CO)NC(=O)[C@@H](NC(=O)[C@H](Cc1ccccc1)NC(=O)[C@@H](NC(=O)CNC(=O)[C@@H](N)CCC(=O)O)[C@@H](C)O)[C@@H](C)CC)C(=O)N[C@@H](C)C(=O)N[C@@H](CCSC)C(=O)N[C@@H](CC(=O)O)C(=O)N[C@@H](CCCCN)C(=O)N[C@H](C(=O)N[C@@H](CCCCNC(=O)CCCCCCCCCCCCCCC(=O)O)C(=O)N[C@@H](CCC(N)=O)C(=O)N[C@@H](CCC(N)=O)C(=O)N[C@@H](CC(=O)O)C(=O)N[C@@H](Cc1ccccc1)C(=O)N[C@H](C(=O)N[C@@H](CC(N)=O)C(=O)N[C@@H](Cc1c[nH]c2ccccc12)C(=O)N[C@@H](CC(C)C)C(=O)N[C@@H](CC(C)C)C(=O)N[C@@H](C)C(=O)N[C@@H](CCC(N)=O)C(=O)N[C@@H](CCCCN)C(N)=O)C(C)C)[C@@H](C)CC [AT158, reference compound] (H-EGTFISDYSIAMDKIK(C16 diacid)QQDFVNWLLAQK-NH2; N-terminus assumed)
cAMP antagonism pIC50 (human GIP receptor; Table 2A, HEK-293 cells transiently expressing hGIPR, agonist GIP1-42 at EC50): 7.8 | Avr lag time ([1]; 1 mg/ml, TFA, Phosphate (7.4)): <18 h | Avr lag time ([1]; 5 mg/ml, TFA, MilliQ): <18 h | Visual appearance ([2]; 1 mg/ml, CI, MilliQ (7.9)): Turbid and Hazy
